From patent US10696686B2, “Herbicidally active (alkynyl-phenyl)-substituted cyclic dione compounds and derivatives thereof” (Syngenta Limited, priority 2013, dated 2020)

Legend:
Assay type in all cases: in vivo
[1] = tested on: Echinochloa crus-galli (ECHCG); assay: Biological Example 1A glasshouse assay, post-emergence application; settings: 312 h, 13 days after application, read-out: Percentage phytotoxicity ECHCG
Description: (§1) Seeds of a variety of test plant species were sown in standard soil ** in pots. After cultivation for one day (pre-emergence) or after 8 days cultivation (post-emergence) under controlled conditions in a glasshouse (at 24/16° C., day/night; 14 hours light; 65% humidity), the plants were sprayed with an aqueous spray solution derived from the formulation of the technical active ingredient (the test herbicide) in acetone/water (50:50) solution containing 0.5% Tween 20 (polyoxyethylene sorbitan monolaurate, CAS Reg. No. 9005-64-5). The test plants were then grown on under controlled conditions in a glasshouse (at 24/16° C., day/night; 14 hours light; 65% humidity) and watered twice daily. 13 Days after application of the test herbicide, for pre- and post-emergence, the test was evaluated visually for percentage phytotoxicity to each plant (where 100%=total damage to plant; 0%=no damage to plant). Generally, each test herbicide is only tested on 1 plant per plant species for each application rate tested and for each application timing. ** The “standard soil” in Biological Example 1 is usually a “sand” or “sandy loam” type of soil.
(§2) Dicotyledonous weeds: ABUTH=Abutilon theophrasti; AMARE=Amaranthus retroflexus. Grassy monocotyledonous weeds: SETFA=Setaria faberi; ALOMY=Alopecurus myosuroides; ECHCG=Echinochloa crus-galli; ZEAMX=Zea mays (corn, maize, e.g. volunteer corn). For Compound A16, the grassy monocotyledonous weed LOLPE (Lolium perenne) was used in the test insterad of ALOMY.

[2] = tested on: Amaranthus retroflexus (AMARE); assay: as above; settings: 312 h, 13 days after application, read-out: Percentage phytotoxicity AMARE
Description: as §1, §2

Setaria faberi (SETFA) [3] = assay: as above; settings: for pest or weed control at 250 g/ha / pest or weed control at 30 g/ha: Setaria faberi, 312 h, 13 days after application, read-out: Percentage phytotoxicity SETFA
Description: as §1, §2

[4] = tested on: Abutilon theophrasti (ABUTH); assay: as above; settings: 312 h, 13 days after application, read-out: Percentage phytotoxicity ABUTH
Description: as §1, §2

[5] = tested on: Zea mays (ZEAMX, corn, maize, e.g. volunteer corn); assay: as above; settings: for pest or weed control at 250 g/ha / pest or weed control at 30 g/ha: Zea mays, 312 h, 13 days after application, read-out: Percentage phytotoxicity ZEAMX
Description: as §1, §2

[6] = tested on: Alopecurus myosuroides (ALOMY); assay: as above; settings: for Percentage phytotoxicity ALOMY: 13 days after application
Description: as §1, §2

[7] = tested on: Echinochloa crus-galli (ECHCG); assay: Biological Example 1B glasshouse assay, pre-emergence application; settings: 250 g/ha, 13 days after application
Description: as §1, §2

[8] = tested on: Amaranthus retroflexus (AMARE); assay: as above; settings: 250 g/ha, 13 days after application
Description: as §1, §2

Setaria faberi (SETFA) [9] = assay: as above; settings: 250 g/ha, 13 days after application
Description: as §1, §2

[10] = tested on: Abutilon theophrasti (ABUTH); assay: as above; settings: 250 g/ha, 13 days after application
Description: as §1, §2

[11] = tested on: Zea mays (ZEAMX, corn, maize, e.g. volunteer corn); assay: as above; settings: 250 g/ha, 13 days after application
Description: as §1, §2

[12] = tested on: Alopecurus myosuroides (ALOMY); assay: as above; settings: 250 g/ha, 13 days after application
Description: as §1, §2

[13] = tested on: grassy (in particular warm climate grassy) monocotyledonous weeds; assay: Post-emergence herbicidal activity, summary statements on Biological Examples 1 to 3; settings: applied at about 250 g/ha post-emergence; Biological Examples 1 and 2
Description: as §1
Seeds of a variety of monocotyledonous and dicotyledonous test plants are sown in standard soil in pots. The plants are cultivated for one day (for pre-emergence) or for about 12 days (range=10-13 days) (for post-emergence) under controlled conditions in a glasshouse (warm climate species at 24/18° C., cool climate species at 20/16° C., both at day/night; 16 hours light; 65% humidity). An “instant formulation”, known as the “IF50”, containing 50 g/litre (i.e. 5% w/v) of the “technical” (i.e. unformulated) active ingredient is prepared by dissolving the active ingredient in a mixture of organic solvents and emulsifier, details of which are provided in the Table below. […]
The test plants are then grown on, in a glasshouse (greenhouse) under controlled conditions (at either 24/18° C. or 20/16° C. (day/night) as mentioned above; 16 hours light; 65% humidity) and are watered twice daily. Either 14 or 15 days after application of the herbicide (14 or 15 DAA) (for post-emergence), or 20 days after application of the herbicide (20 DAA) (for pre-emergence), the test plants are evaluated visually, and an assessed percentage phytotoxicity score is given for each herbicidal application on each plant species (where 100%=total damage to plant; 0%=no damage to plant). […]

[14] = applied at about 250 g/ha post-emergence

Row | SMILES | pest or weed control at 250 g/ha [1] [%] | pest or weed control at 250 g/ha [2] [%] | pest or weed control at 250 g/ha (Setaria faberi (SETFA) [3]; post-emergence, 250 g/ha) [%] | pest or weed control at 250 g/ha [4] [%] | pest or weed control at 250 g/ha ([5]; post-emergence, 250 g/ha) [%] | Percentage phytotoxicity ALOMY ([6]; 250 g/ha) [%] | Percentage phytotoxicity ECHCG [7] [%] | Percentage phytotoxicity AMARE [8] [%] | Percentage phytotoxicity SETFA (Setaria faberi (SETFA) [9]) [%] | Percentage phytotoxicity ABUTH [10] [%] | Percentage phytotoxicity ZEAMX [11] [%] | Percentage phytotoxicity ALOMY [12] [%] | pest or weed control at 30 g/ha [1] [%] | pest or weed control at 30 g/ha [2] [%] | pest or weed control at 30 g/ha (Setaria faberi (SETFA) [3]; post-emergence) [%] | pest or weed control at 30 g/ha [4] [%] | pest or weed control at 30 g/ha ([5]; post-emergence) [%] | Percentage phytotoxicity ALOMY ([6]; 30 g/ha) [%] | post-emergent herbicidal potency against grassy monocotyledonous weeds (in words) [13] | other results
1 | CC#Cc1cc(F)c(C2C(=O)CC3(CCOCC3)CC2=O)c(OC)c1 [Compound A14] | 20 | 10 | 70 | 0 | 80 | 40 | 70 | 20 | 20 | 0 | 30 | 40 | – | – | – | – | – | – | – | post-emergent herbicidal potency on SETFA (in words) (Setaria faberi (SETFA) [3]; [14]): potent post-emergent herbicides; herbicidal potency against SETFA compared with compound B2 (in words) (Setaria faberi (SETFA) [3]; post-emergence, 250 g/ha, Biological Example 1A, more potent 'perhaps also' on SETFA): perhaps also; post-emergent herbicidal potency on ZEAMX (in words) [5, 14]: potent post-emergent herbicides; herbicidal potency against ZEAMX compared with compound B2 (in words) ([5]; post-emergence, 250 g/ha, Biological Example 1A): more potent herbicide; herbicidal potency against ALOMY compared with compound B2 (in words) ([6]; 250 g/ha, Biological Example 1A): more potent herbicide
2 | C#Cc1cc(F)c(C2C(=O)CC3(CCOCC3)CC2=O)c(OC)c1 [Compound B2] | 30 | 0 | 60 | 0 | 40 | 10 | 40 | 40 | 30 | 0 | 50 | 50 | – | – | – | – | – | – | – | –
3 | CC#Cc1cc(F)c(C2C(=O)CCC2=O)c(OC)c1 [Compound A9] | 70 | 20 | 80 | 30 | 90 | 20 | 80 | 20 | 80 | 0 | 80 | 30 | 60 | 0 | 70 | 0 | 70 | 0 | potent post-emergent herbicides | –
4 | CC#Cc1cc(F)c(C2C(=O)C(C)(C)OC(C)(C)C2=O)c(OC)c1 [Compound A10] | 80 | 0 | 90 | 0 | 90 | 80 | 90 | 0 | 70 | 0 | 50 | 50 | 50 | 0 | 70 | 0 | 40 | 40 | potent post-emergent herbicides | –
5 | CC#Cc1cc(F)c(C2C(=O)CC(CC(C)SC)CC2=O)c(OC)c1 (stereo not shown) [Compound A12] | 20 | 0 | 0 | 0 | 30 | 0 | – | – | – | – | – | – | – | – | – | – | – | – | – | –
